Ends that are not written are not given here.

Assay [1] relates to A2780 ovarian tumor cells. The assay is described as follows: Uptake of doxorubicin by ovarian tumor cells in vitro (fluorometric). The assay is classed as cell-based. The settings on record: 5 nM DOX. The procedure: To determine the uptake of doxorubicin by ovarian tumor cells in vitro, ovarian tumor cells (A2780) were plated in 6-well plates. After 24 hrs of incubation, the medium was replaced with fresh medium and cells were then treated with PBS, free DOX (DOX concentration=5 nM), DOX-NPs (5 nM DOX), or LHRH-NP-DOXs (5 nM DOX). After 2, 4, and 24 hrs of incubation, cells were rinsed with PBS and scrapped off the plates and centrifuged. The pellets were resuspended in lysis buffer [[…] sucrose, 5 mM TrisHCl, 1 mM MgSO4, 1 mM CaCl2 (pH 7.6)] and homogenized using a polytron homogenizer. A 200:1 dilution of the homogenate from each sample was then transferred in triplicate to 2 ml centrifuge tubes and 100:1 of 10% (v/v) Triton X-100, 200:1 of water, and 1,500:1 of acidified isopropanol (0.75 N HCl) was added. The tubes were vortexed to ensure complete mixing and doxorubicin was extracted overnight at −20° C. The next day, the samples were thawed to room temperature, and then centrifuged at 15,000×g for 20 min. The supernatant was collected. Doxorubicin was measured fluorometrically (EX485 nm/EM590 nm) as described previously (3).

In assay [2] the test system is ovarian epithelial tumor cells lines (A2780, CAOV3, and UCI), and a cisplatin-resistant cell line (A2780/CP70). The assay is described as follows: Cell viability (MTT, 96-titer kit) in ovarian tumor cell lines. The settings on record: concentrations from 1 to 5 nM; cisplatin-sensitive and cisplatin-resistant cell lines.
Another assay deals with T1, LHRH receptor (Mus musculus, UniProt Q01776).
T1 construct: endogenous in cells; host or cells: LβT2 mouse gonadotrope tumor cell line
T1 sequence (Q01776 1-327): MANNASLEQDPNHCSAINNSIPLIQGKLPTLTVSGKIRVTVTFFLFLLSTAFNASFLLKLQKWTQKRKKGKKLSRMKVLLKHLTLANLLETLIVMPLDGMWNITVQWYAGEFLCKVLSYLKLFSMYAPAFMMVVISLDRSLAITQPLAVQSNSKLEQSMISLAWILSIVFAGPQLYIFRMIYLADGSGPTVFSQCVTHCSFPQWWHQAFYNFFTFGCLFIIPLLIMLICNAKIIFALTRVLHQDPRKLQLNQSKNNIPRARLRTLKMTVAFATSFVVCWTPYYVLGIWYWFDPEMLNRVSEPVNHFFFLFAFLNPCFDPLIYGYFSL
The assay is described as follows: pCRE-luciferase reporter assay in LβT2 cells for binding to cell surface LHRH receptors. The format is cell-based. The settings on record: 6 hrs treatment, read-out: binding affinities (IC50 values). The procedure:
To determine if LHRH, when conjugated to gold particles or FNPs, retained its binding affinity to the luteinizing hormone-releasing hormone receptor and its biological activity, the binding of LHRH, LHRH-NP-DOXs, and LHRH-FNP-DOXs to cell surface LHRH receptors was first examined For this purpose, a mouse gonadotrope tumor cell line (LβT2) was used that expresses high levels of high affinity LHRH receptors (82). The LβT2 cells were plated on 6-well plates. After 24 hrs, the cells were transfected with a reporter gene construct, pCRE-luciferase plasmid, as described previously (82). After 24 hrs of transfection, the medium was replaced with serum free medium, followed by incubation for 4 hrs, and then treatment of the cells with various concentrations of LHRH or LHRH-NP-DOXs for 6 hrs. Cells were then lysed and assayed for luciferase activity using a luciferase assay kit (Promega, Madison, Wis.). Binding of LHRH or LHRH-NP-DOX particles was calculated and compared as described previously (82). Experiments were repeated three times for every new preparation.
Background: A reporter such as luciferase makes a cellular process visible.

For the compound `COc1cccc2c1C(=O)c1c(O)c3c(c(O)c1C2=O)C[C@@](O)(C(=O)CO)C[C@@H]3O[C@H]1C[C@H](N)[C@H](O)[C@H](C)O1` [DOX, doxorubicin, reference compound], the “doxorubicin found in cells compared to LHRH-NP-DOXs” value in assay [1] (after 24 hrs) is “significantly lower”. Further, the “doxorubicin found in cells” value in assay [1] (within 4 hrs) is on record as “no detectable amount”. Moreover, the “efficacy on cell death” value in assay [2] is “ineffective”.
For the compound `CC(C)C[C@H](NC(=O)[C@@H](Cc1c[nH]c2ccccc12)NC(=O)[C@H](Cc1ccc(O)cc1)NC(=O)[C@H](CO)NC(=O)[C@H](Cc1c[nH]c2ccccc12)NC(=O)[C@H](Cc1c[nH]cn1)NC(=O)[C@@H]1CCC(=O)N1)C(=O)N[C@@H](CCCNC(=N)N)C(=O)N1CCC[C@H]1C(=O)NCC(N)=O` [LHRH, p-Glu-His-Trp-Ser-Tyr-D-Trp-Leu-Arg-Gly-NH2, reference compound], on LHRH receptor, the IC50 (usually the concentration that inhibits the measured activity by half) worked out at 0.1 nM. Besides, the “efficacy on cell death” value in assay [2] is “ineffective”.
With “LHRH-DOX (QHWSYGLRPG; also: doxorubicin conjugate; UniProt P01148 24-33, looked up)”, the “efficacy on cell death” value in assay [2] is “ineffective”.

(Values after US20110104074A1, “METHODS FOR TARGETED CANCER TREATMENT AND DETECTION” (UNIVERSITY OF LOUISVILLE RESEARCH FOUNDATION, INC., priority 2008, published 2011).)
